The nature of this data set: Octanol-water partition coefficient (log P). Format: physicochemical. The following applies: 1:1 HEPES buffer and 1-octanol. The protocol: Aqueous solutions were prepared by using de-ionized water with resistivity […], obtained using a Milli-Q water purification system. In order to properly compare the photophysical properties of ZincBY-2, ZincBY-3, and ZincBY-4 to ZincBY-1, the photophysical properties of ZincBY-1 we remeasured. Tested values differed from the previously published values (Ref. B2; incorporated by reference in its entirety). It was determined that copper was present in the aqueous buffer used for in vitro analysis of the previous samples. The corrected values are used herein, utilizing buffers that are copper-free. Stock solutions of ZincBY-1, ZincBY-2, ZincBY-3, and ZincBY-4 were prepared at concentrations of 5 mM and stored at −20° C. in aliquots that were used immediately after thawing for each experiment. Unless otherwise stated, all spectroscopic methods were conducted in aqueous buffer containing 50 mM HEPES (pH 7.2) and 0.1 M KNO3. […] Fluorescence spectra were acquired using a PerkinElmer LS 55 fluorescence spectrophotometer. […] Quantum yields for apo and holo ZincBY-1, ZincBY-2, ZincBY-3, and ZincBY-4 were determined by plotting absorbance vs. fluorescence intensity of solutions containing ZincBY-1, ZincBY-2, ZincBY-3, or ZincBY-4 at probe concentrations ranging from 50-250 nM. […] Fluorescein dissolved in 0.1 N NaOH was used as the quantum yield standard, using a literature-determined quantum yield of 0.95.^3 For all fluorophore solutions, fluorescence excitation was set at 490 nm and fluorescence emission was integrated from 510 nm to 650 nm. […] Fluorescence spectra were recorded using zinc probes (ZincBY-1, ZincBY-2, ZincBY-3, or ZincBY-4; 200 nM) and ZnSO4 (various concentrations). […] Free Zn^2+ was calculated according to a previously reported method (Ref. B4; incorporated by reference in its entirety). […] The fluorescence spectra of zinc probes (ZincBY-2, ZincBY-3, or ZincBY-4; 200 nM) wasere measured at various pH values (4.5-11). […] The fluorescence spectra were compared to that of ZincBY-2 (200 nM), ZincBY-3 (200 nM), or ZincBY-4 (200 nM) in the presence of 10 μM TPEN. […]
What is called LogP is the decadic logarithm of the partition coefficient of the neutral form, usually between octanol and water. Read a high LogP as higher lipophilicity. With `Cc1cc(C)c(C2=C3C=CC(OCCN=[N+]=[N-])=[N+]3[B-](F)(F)n3c2ccc3N(CCN(Cc2ccccn2)Cc2ccccn2)Cc2ccccn2)c(C)c1` [ZincBY-2, N1-(7-(2-azidoethoxy)-5,5-difluoro-10-mesityl-5H-4λ4,5λ4-dipyrrolo[1,2-c:2′,1′-f][1,3,2]diazaborinin-3-yl)-N1,N2,N2-tris(pyridin-2-ylmethyl)ethane-1,2-diamine], the LogP is listed as ~1.25.

As for `Cc1cc(C)c(C2=C3C=CC(OCCN)=[N+]3[B-](F)(F)n3c2ccc3N(CCN(Cc2ccccn2)Cc2ccccn2)Cc2ccccn2)c(C)c1` [ZincBY-3, N1-(7-(2-aminoethoxy)-5,5-difluoro-10-mesityl-5H-4λ4,5λ4-dipyrrolo[1,2-c:2′,1′-f][1,3,2]diazaborinin-3-yl)-N1,N2,N2-tris(pyridin-2-ylmethyl)ethane-1,2-diamine], the log partition coefficient (LogP) is ~0.15.

Regarding `CC(=O)NCCOc1ccc2n1[B-](F)(F)[N+]1=C(N(CCN(Cc3ccccn3)Cc3ccccn3)Cc3ccccn3)C=CC1=C2c1c(C)cc(C)cc1C` [ZincBY-4, N-(2-((7-((2-(bis(pyridin-2-ylmethyl)amino)ethyl)(pyridin-2-ylmethyl)amino)-5,5-difluoro-10-mesityl-5H-5λ4,6λ4-dipyrrolo[1,2-c:2′,1′-f][1,3,2]diazaborinin-3-yl)oxy)ethyl)acetamide], the lipophilicity (LogP) is ~0.33.

The values are drawn from patent US11953435B2, “Zinc-responsive fluorophores” (Northwestern University, priority 2019, dated 2024).
